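1) Cells in 96-well plates. 2) Compound, 48 h, 5 concentrations. 3) Linear interpolation between surrounding doses. 4) Unreached endpoint = highest concentration. Abbreviation: GI50, concentration required for 50% inhibition of growth. TGI is the concentration that stops growth completely.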
How the values were obtained:
Assay in all cases: NCI tumour cell line growth inhibition, 48 h
[1] = system: OVCAR-3 ovarian
[2] = system: IGROV1 ovarian
[3] = system: SK-MEL-5 melanoma
[4] = system: COLO 205 colon
[5] = system: SF-295 CNS
[6] = system: MALME-3M melanoma
[7] = system: TK-10 renal
[8] = system: HOP-92 NSCLC
[9] = system: HCT-15 colon
[10] = system: NCI-H460 lung
[11] = system: DU-145 prostate
[12] = system: U251 CNS
[13] = system: SW-620 colon
[14] = system: UACC-62 melanoma
[15] = system: PC-3 prostate
[16] = system: NCI/ADR-RES ovarian
[17] = system: OVCAR-5 ovarian
[18] = system: SF-539 CNS
[19] = system: NCI-H23 lung
[20] = system: SN12C renal
[21] = system: HS 578T breast
[22] = system: OVCAR-4 ovarian
[23] = system: MDA-MB-231 breast
[24] = system: CCRF-CEM leukemia
[25] = system: BT-549 breast
[26] = system: LOX IMVI melanoma
[27] = system: T-47D breast
[28] = system: A498 renal
[29] = system: HCT-116 colon
[30] = system: HCC-2998 colon
[31] = system: 786-0 renal
[32] = system: UO-31 renal
[33] = system: SK-OV-3 ovarian
[34] = system: HL-60(TB) leukemia
[35] = system: OVCAR-8 ovarian
[36] = system: KM12 colon
[37] = system: ACHN renal
[38] = system: SNB-75 CNS
[39] = system: NCI-H522 lung
[40] = system: M14 melanoma
[41] = system: MDA-MB-435
[42] = system: SF-268 CNS
[43] = system: CAKI-1 renal
[44] = system: NCI-H226 lung
[45] = system: SK-MEL-28 melanoma
[46] = system: MCF7 breast
[47] = system: HOP-62 NSCLC
[48] = system: EKVX NSCLC
[49] = system: SNB-19 CNS
[50] = system: HT29 colon
[51] = system: RXF 393 renal
[52] = system: A549 NSCLC
[53] = system: MOLT-4 leukemia
[54] = system: UACC-257 melanoma
[55] = system: RPMI-8226 leukemia
[56] = system: K-562 leukemia
[57] = system: SR leukemia
[58] = system: SK-MEL-2 melanoma

Cc1cc(F)cc(NS(=O)(=O)c2ccc(-c3cnc(C4CC4)o3)cc2)c1
GI50 [1]: 52.3 nM
TGI [1]: 11000 nM
GI50 [2]: 252 nM
TGI [2]: 13600 nM
GI50 [3]: 266 nM
TGI [3]: 1890 nM
GI50 [4]: 246 nM
TGI [4]: 1760 nM
GI50 [5]: 127 nM
TGI [5]: 3490 nM
GI50 [6]: 837 nM
TGI [6]: 20900 nM
GI50 [7]: 3170 nM
TGI [7]: 16700 nM
GI50 [8]: 422 nM
TGI [8]: 5040 nM
GI50 [9]: 83.6 nM
TGI [9]: 11400 nM
GI50 [10]: 142 nM
TGI [10]: 2030 nM
GI50 [11]: 421 nM
TGI [11]: 13800 nM
GI50 [12]: 451 nM
TGI [12]: 14500 nM
GI50 [13]: 98.8 nM
TGI [13]: 14400 nM
GI50 [14]: 122 nM
TGI [14]: 8860 nM
GI50 [15]: 342 nM
TGI [15]: 12300 nM
GI50 [16]: 120 nM
TGI [16]: 5290 nM
GI50 [17]: 926 nM
TGI [17]: 15500 nM
GI50 [18]: 271 nM
TGI [18]: 2990 nM
GI50 [19]: 585 nM
TGI [19]: 12600 nM
GI50 [20]: 773 nM
TGI [20]: 11600 nM
GI50 [21]: 303 nM
TGI [21]: 7850 nM
GI50 [22]: 967 nM
TGI [22]: 15200 nM
GI50 [23]: 827 nM
TGI [23]: 13600 nM
GI50 [24]: 199 nM
TGI [24]: 13500 nM
GI50 [25]: 1010 nM
TGI [25]: 9820 nM
GI50 [26]: 301 nM
TGI [26]: 12700 nM
GI50 [27]: 268 nM
TGI [27]: 21800 nM
GI50 [28]: 76.2 nM
TGI [28]: 1010 nM
GI50 [29]: 225 nM
TGI [29]: 10900 nM
GI50 [30]: 739 nM
TGI [30]: 10700 nM
GI50 [31]: 752 nM
TGI [31]: 16400 nM
GI50 [32]: 848 nM
TGI [32]: 12600 nM
GI50 [33]: 748 nM
TGI [33]: 15400 nM
GI50 [34]: 99.3 nM
TGI [34]: 769 nM
GI50 [35]: 735 nM
TGI [35]: 14700 nM
GI50 [36]: 183 nM
TGI [36]: 11600 nM
GI50 [37]: 648 nM
TGI [37]: 12800 nM
GI50 [38]: 159 nM
TGI [38]: 1570 nM
GI50 [39]: 372 nM
TGI [39]: 10800 nM
GI50 [40]: 285 nM
TGI [40]: 13000 nM
GI50 [41]: 31.4 nM
TGI [41]: 145 nM
GI50 [42]: 1500 nM
TGI [42]: 13200 nM
GI50 [43]: 86.9 nM
TGI [43]: 13100 nM
GI50 [44]: 489 nM
TGI [44]: 7820 nM
GI50 [45]: 1890 nM
TGI [45]: 16600 nM
GI50 [46]: 80.6 nM
TGI [46]: 12100 nM
GI50 [47]: 362 nM
TGI [47]: 14600 nM
GI50 [48]: 591 nM
TGI [48]: 13900 nM
GI50 [49]: 441 nM
TGI [49]: 15000 nM
GI50 [50]: 105 nM
TGI [50]: 12200 nM
GI50 [51]: 161 nM
TGI [51]: 603 nM
GI50 [52]: 662 nM
TGI [52]: 14300 nM
GI50 [53]: 366 nM
TGI [53]: 15400 nM
GI50 [54]: 1770 nM
TGI [54]: 12100 nM
GI50 [55]: 179 nM
TGI [55]: 1870 nM
GI50 [56]: 49.4 nM
TGI [56]: 12300 nM
GI50 [57]: 46.4 nM
TGI [57]: 5910 nM
GI50 [58]: 1030 nM
TGI [58]: 15500 nM

CCC(CC)N1C(=O)/C(=c2\sc3n(c2=O)C2C(NN=3)N(CC)C(=O)N2CC)c2ccccc21 (stereo not given)
GI50 [2]: 554 nM
TGI [2]: 19200 nM
GI50 [3]: 590 nM
TGI [3]: 4100 nM
GI50 [4]: 317 nM
TGI [4]: 1120 nM
GI50 [5]: 324 nM
TGI [5]: 12300 nM
GI50 [6]: 3460 nM
TGI [6]: 35100 nM
GI50 [7]: 9040 nM
TGI [7]: 29100 nM
GI50 [8]: 2410 nM
TGI [8]: 45400 nM
GI50 [9]: 353 nM
TGI [9]: 13100 nM
GI50 [10]: 364 nM
TGI [10]: 29000 nM
GI50 [11]: 453 nM
TGI [11]: 17200 nM
GI50 [12]: 405 nM
TGI [12]: 15500 nM
GI50 [13]: 458 nM
TGI [13]: > 100000 nM
GI50 [14]: 538 nM
TGI [14]: 21600 nM
GI50 [15]: 473 nM
TGI [15]: > 100000 nM
GI50 [16]: 385 nM
TGI [16]: 15600 nM
GI50 [17]: 538 nM
TGI [17]: 35300 nM
GI50 [18]: 307 nM
TGI [18]: 3430 nM
GI50 [19]: 535 nM
TGI [19]: 17800 nM
GI50 [20]: 1200 nM
TGI [20]: 17800 nM
GI50 [21]: 381 nM
TGI [21]: 22500 nM
GI50 [22]: 10400 nM
TGI [22]: > 100000 nM
GI50 [23]: 591 nM
TGI [23]: 12000 nM
GI50 [24]: 365 nM
TGI [24]: > 94000 nM
GI50 [25]: 465 nM
TGI [25]: 3290 nM
GI50 [26]: 345 nM
TGI [26]: 11100 nM
GI50 [27]: 2800 nM
TGI [27]: > 65600 nM
GI50 [28]: 287 nM
TGI [28]: 925 nM
GI50 [29]: 345 nM
TGI [29]: 5180 nM
GI50 [30]: 370 nM
TGI [30]: 12600 nM
GI50 [31]: 665 nM
TGI [31]: 14800 nM
GI50 [32]: 688 nM
TGI [32]: 33800 nM
GI50 [33]: 629 nM
TGI [33]: 51800 nM
GI50 [34]: 288 nM
TGI [34]: 888 nM
GI50 [35]: 397 nM
TGI [35]: 26700 nM
GI50 [36]: 431 nM
TGI [36]: 25100 nM
GI50 [37]: 690 nM
TGI [37]: 16600 nM
GI50 [38]: 198 nM
TGI [38]: 714 nM
GI50 [39]: 312 nM
TGI [39]: 3360 nM
GI50 [40]: 337 nM
TGI [40]: 11500 nM
GI50 [41]: 240 nM
TGI [41]: 602 nM
GI50 [42]: 1070 nM
TGI [42]: 29300 nM
GI50 [43]: 577 nM
TGI [43]: 14900 nM
GI50 [44]: 923 nM
TGI [44]: 37100 nM
GI50 [45]: 5820 nM
TGI [45]: 60200 nM
GI50 [46]: 364 nM
TGI [46]: 14000 nM
GI50 [47]: 554 nM
TGI [47]: 22500 nM
GI50 [48]: 734 nM
TGI [48]: > 87800 nM
GI50 [49]: 465 nM
TGI [49]: 24600 nM
GI50 [50]: 326 nM
TGI [50]: 3040 nM
GI50 [51]: 326 nM
TGI [51]: 16700 nM
GI50 [52]: 503 nM
TGI [52]: 21700 nM
GI50 [53]: 434 nM
TGI [53]: > 41100 nM
GI50 [54]: 7210 nM
TGI [54]: > 78000 nM
GI50 [55]: 442 nM
TGI [55]: 8450 nM
GI50 [56]: 351 nM
TGI [56]: > 100000 nM
GI50 [57]: 361 nM
TGI [57]: > 35100 nM
GI50 [58]: 1920 nM
TGI [58]: 5880 nM

From PubChem BioAssay (NCI)
